The values below come from PMC3769509 (Nuclear medicine and biology, 2013).

Several values for one entry are separate records, joined by “and”; a condition that tells them apart may be missing. Equal entries are not always repeated. Some results are limits rather than exact numbers.

Data set [1] is described as follows: PET studies: brain pharmacokinetics. The note with it: baboon, iv.
The nature of data set [2]: PET studies: biodistribution in peripheral organs. The note with it: baboon, iv.
Data set [3] in a line: PET studies: plasma analysis of unchanged radiotracer. The note with it: baboon, iv; for fraction of radioactivity in plasma as unmetabolized compound: 30 min after administration.
For data set [4] the following is noted: epilepsy patients, after intravenous infusions; cited from earlier work.
Data set [5] is described as follows: Ex vivo rat brain analysis after [11C]BA administration. Format: in vivo. The note with it: 5 min and 30 min after administration, data not shown.
Data set [6] can be described thus: Free fraction in plasma. Format: in vitro ADME. As to conditions: baboon plasma.
Data set [7] can be described thus: Lipophilicity at pH 7.4. Type of data set: physicochemical.
[8] abbreviates: parent and/or labeled metabolites.

As to `CCCC(=O)O` [BA, n-butyric acid], the “brain uptake of carbon-11” value in data set [1] is listed as less than 0.006 %ID/cc.
Consider `O=C(O)CCCc1ccccc1` [PBA, 4-phenylbutyric acid], for which, in data set [2], the “high uptake in vertebrae” value is recorded as “not observed”. Besides, in data set [1], the “brain uptake of carbon-11” value is less than 0.006 %ID/cc. The “fraction of radioactivity in plasma as unmetabolized compound” value in data set [3] turned out to be 85%.
Take `CCCC(CCC)C(=O)O` [VPA, 2-propylpentanoic acid]: the “free VPA in plasma” value in data set [4] is recorded as 9–15%. Besides, the “high uptake in vertebrae” value in data set [2] is listed as “not observed”. In addition, in data set [2] (setting [8]), the uptake in heart result was “remarkably high”. The “brain uptake of carbon-11” value in data set [1] was < 0.006 %ID/cc and 0.004 %ID/cc. Also, the “fraction of radioactivity in plasma as unmetabolized compound” value in data set [3] was found to be 98%.
Take `CCC[11C](=O)O` [[^11C]BA, [^11C]Butyric Acid]: in data set [5], the “intact [11C]BA fraction in brain” value is “very low”. Further, the “high uptake in vertebrae” value in data set [2] is “high uptake”. Further, in data set [2] (setting [8]), the uptake in heart entry is “very low”; the uptake in pancreas result was “relatively high and high”; the uptake in spleen entry is “relatively high and high”. For the same compound, the “% unbound in plasma” value in data set [6] is reported as 82±0.4 (n=2) %. Moreover, the “brain uptake of carbon-11” value in data set [1] is ~ 0.006 %ID/cc.
Turning to `O=[11C](O)CCCc1ccccc1` [[^11C]PBA, [^11C]-4-Phenylbutyric Acid], in data set [2] (setting [8]), the uptake in heart result is given as “moderate” and the uptake in liver result was “high”. The “% unbound in plasma” value in data set [6] was 1.5±0.7 (n=6) %. In addition, in data set [1], the “brain uptake of carbon-11” value is ~ 0.006 %ID/cc. For the same compound, in data set [7], the Log D (as a rule, the decadic logarithm of the distribution of all forms, ionised or not, between an organic phase and buffer at a given pH) at pH 7.4 is listed as −0.20±0.03 (n=6).
On to `CCCC(CCC)[11C](=O)O` [[^11C]VPA, [^11C]Valproic Acid], for which, in data set [2] (setting [8]), the uptake in heart entry is given as “exceptionally high”. Besides, in data set [6], the “% unbound in plasma” value was 26±0.3 (n=2) %. Further, in data set [7], the “Log D at pH 7.4” value is recorded as 0.26±0.03 (n=5). Moreover, in data set [3] (over 90 min), the “intact fraction in plasma” value is on record as more than 90%.
